According to PubChem BioAssay (NCI):
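Step 1: Grow cells in 96-well plates. Step 2: Expose to compound for 48 hours at 5 concentrations. Step 3: Interpolate endpoints linearly; if unreached, use highest concentration. TGI: concentration producing complete growth inhibition.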

Experiments:
Assay in all cases: NCI-60 cell line screen, 48 h
786-0 renal = test system: 786-0 renal
A498 renal = test system: A498 renal
ACHN renal = test system: ACHN renal
BT-549 breast = test system: BT-549 breast
CAKI-1 renal = test system: CAKI-1 renal
COLO 205 colon = test system: COLO 205 colon
EKVX NSCLC = test system: EKVX NSCLC
HCT-116 colon = test system: HCT-116 colon
HCT-15 colon = test system: HCT-15 colon
HS 578T breast = test system: HS 578T breast
M14 melanoma = test system: M14 melanoma
MALME-3M melanoma = test system: MALME-3M melanoma
MDA-MB-435 = test system: MDA-MB-435
MOLT-4 leukemia = test system: MOLT-4 leukemia
NCI-H226 lung = test system: NCI-H226 lung
RPMI-8226 leukemia = test system: RPMI-8226 leukemia
U251 CNS = test system: U251 CNS
UACC-62 melanoma = test system: UACC-62 melanoma
NCI-H522 lung = test system: NCI-H522 lung
OVCAR-4 ovarian = test system: OVCAR-4 ovarian

| SMILES | TGI (786-0 renal) | TGI (A498 renal) | TGI (ACHN renal) | TGI (BT-549 breast) | TGI (CAKI-1 renal) | TGI (COLO 205 colon) | TGI (EKVX NSCLC) | TGI (HCT-116 colon) | TGI (HCT-15 colon) | TGI (HS 578T breast) | TGI (M14 melanoma) | TGI (MALME-3M melanoma) | TGI (MDA-MB-435) | TGI (MOLT-4 leukemia) | TGI (NCI-H226 lung) | TGI (RPMI-8226 leukemia) | TGI (U251 CNS) | TGI (UACC-62 melanoma) | TGI (NCI-H522 lung) | TGI (OVCAR-4 ovarian) |
| --- | --- | --- | --- | --- | --- | --- | --- | --- | --- | --- | --- | --- | --- | --- | --- | --- | --- | --- | --- | --- |
| COc1ccc(N2C(=O)CC(c3c[nH]c4ccccc34)C2=O)cc1 (stereo unspecified) | > 100 µM | > 100 µM | > 100 µM | > 100 µM | > 100 µM | > 100 µM | > 100 µM | > 100 µM | > 100 µM | > 100 µM | > 100 µM | > 100 µM | > 100 µM | > 100 µM | > 100 µM | > 100 µM | > 100 µM | > 100 µM |  |  |
| CC1CC(=O)NC2CC1C2(C)C (stereo unspecified) | > 100 µM |  | > 100 µM | > 100 µM |  | > 100 µM |  |  | > 100 µM | > 100 µM | > 100 µM | > 100 µM | > 100 µM | > 100 µM | > 100 µM | > 100 µM | > 100 µM | > 100 µM | > 100 µM | > 100 µM |
| C=C1C(=O)O[C@H]2[C@H]3O[C@@H](C[C@@H]12)[C@](C)(O)CCCC(C)=CCC[C@H]3C | > 100 µM |  | 21.7 µM | 3.07 µM | 28.5 µM | 21 µM | 22.4 µM | 31.1 µM | 84.9 µM | 29.2 µM |  |  | 15.8 µM | 8.09 µM | 36.9 µM | 17.4 µM | 29.8 µM | 22.8 µM | 17.3 µM | 39 µM |
| CC(C)=CCC/C(C)=C/CC/C(C)=C/CC/C(C=O)=C/CC/C(C)=C\CC/C(C)=C/CC/C(C)=C/CC/C(C)=C/CC1=CC(=O)C=CC1=O | > 100 µM | > 100 µM | > 100 µM | > 100 µM | 74.3 µM | > 100 µM | > 100 µM | > 100 µM | > 100 µM | > 100 µM | > 100 µM | 66.3 µM | > 100 µM | > 100 µM |  | > 100 µM | > 100 µM | 53.1 µM | 32.3 µM | > 100 µM |
| Cc1nn(C(=O)c2ccncc2)c2c1C(c1ccccc1O)SC(N)=N2 (stereo unspecified) | > 10 µM |  | > 10 µM | > 10 µM | > 10 µM | > 10 µM | > 10 µM | > 10 µM | > 10 µM | > 10 µM | > 10 µM | > 10 µM | > 10 µM | > 10 µM | > 10 µM | > 10 µM | > 10 µM | > 10 µM | > 10 µM | > 10 µM |
| CCC1CCN=C(Cn2cc(C)c(=O)[nH]c2=O)N1 (stereo unspecified) | > 100 µM | > 100 µM | > 100 µM | > 100 µM |  | > 100 µM | > 100 µM | > 100 µM | > 100 µM | > 100 µM | > 100 µM | > 100 µM |  |  | > 100 µM |  | > 100 µM | > 100 µM | > 100 µM |  |
| Cc1ccccc1Nc1cn(CCOc2ccccc2)c(=O)n(CCOc2ccccc2)c1=O | > 100 µM | > 100 µM | > 100 µM | > 100 µM | > 100 µM | > 100 µM | > 100 µM | > 100 µM | > 100 µM | > 100 µM | > 100 µM | 63.7 µM | > 100 µM | > 100 µM |  | > 100 µM | > 100 µM | > 100 µM | > 100 µM | > 100 µM |
| CC(=O)OCC1OC(OC2CC3C(C)(C)C(=O)CC[C@]3(C)C3CC[C@]45C[C@]4(CCC5[C@@H](C)CC(O)C(O)C(C)(C)O)[C@]23C)C(O)C(O)C1O (stereo partly specified) | 26.5 µM |  | 30 µM | 25.9 µM | 31.1 µM | 18.5 µM | 29.9 µM | 20 µM | 31.4 µM | 24.5 µM | 22.2 µM | 27.5 µM | 21.2 µM | 15.6 µM | 30.6 µM | 17.2 µM | 20.3 µM | 22.5 µM | 22.7 µM | 25.7 µM |
| CC1OC2OC3C(OCC(O)C3O)OC(=O)[C@]34CCC(C)(C)CC3C3=CCC5[C@@]6(C)C[C@H](O)[C@H](OC7OC(CO)C(O)C(O)C7OC7OC(COC(=O)CC(C)(O)CC(=O)OC1C(O)C2O)C(O)C(O)C7O)[C@@](C)(CO)C6CC[C@@]5(C)[C@]3(C)CC4 (stereo partly specified) | 2.4 µM |  | 2.52 µM | 2.82 µM | 2.74 µM | 2.98 µM |  | 3.39 µM | 2.91 µM | 3.54 µM | 2.76 µM |  | 2.88 µM |  | 5.19 µM |  | 2.91 µM | 2.81 µM | 3.08 µM | 3.15 µM |
| N=c1c2ccccc2nc2oc3ccc(Cl)cc3n12 | 15.9 µM |  | 28.4 µM | > 100 µM | 37.5 µM | > 100 µM | > 100 µM | 69.3 µM | > 100 µM | 20.3 µM | 56.9 µM | 40.1 µM | > 100 µM | > 100 µM | 34.6 µM | 23.5 µM | 17.8 µM | > 100 µM | 53.1 µM | 13.1 µM |
| CC(C)(C)OC(=O)N1C(=O)OC[C@@H]2C=C[C@@H]21 | > 100 µM | > 100 µM | > 100 µM | > 100 µM | > 100 µM | > 100 µM | > 100 µM | > 100 µM | > 100 µM | > 100 µM | > 100 µM | > 100 µM | > 100 µM | > 100 µM |  | > 100 µM | > 100 µM | > 100 µM | > 100 µM | > 100 µM |
| O=C1c2ccc3ccccc3c2CCC1N1CCCCC1 (stereo unspecified) | 32.1 µM |  | 31.5 µM | 74.7 µM | 29.5 µM | 42.1 µM | 51.7 µM | 31.7 µM | 37.4 µM | 44.9 µM |  | 31.4 µM | 32.3 µM |  | 31.4 µM |  | 33.1 µM | 30.3 µM | 35.7 µM | 30.2 µM |
